Assay results from ChEMBL document CHEMBL1133086, “Design, synthesis, and X-ray crystal structure of a potent dual inhibitor of thymidylate synthase and dihydrofolate reductase as an antitumor agent” (J Med Chem, 2000).

Experiments:
[1] = molecular target: Dihydrofolate reductase (Lactobacillus casei, UniProt P00381); assay: Inhibitory concentration against isolated Lactobacillus casei Dihydrofolate reductase; design: species or system Lacticaseibacillus casei
[2] = molecular target: T1, Dihydrofolate reductase (Homo sapiens, UniProt P00374); assay: Inhibitory concentration against isolated human Dihydrofolate reductase
T1 sequence (P00374 whole entry): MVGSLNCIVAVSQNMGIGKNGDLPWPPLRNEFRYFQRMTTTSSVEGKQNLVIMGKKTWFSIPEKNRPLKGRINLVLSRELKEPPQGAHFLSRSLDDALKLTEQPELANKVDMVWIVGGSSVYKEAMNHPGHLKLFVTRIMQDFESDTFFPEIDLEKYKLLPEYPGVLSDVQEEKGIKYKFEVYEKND

[3] = molecular target: Thymidylate synthase (Escherichia coli, UniProt C3SWJ7); assay: Inhibitory concentration against isolated Escherichia coli Thymidylate synthase
[4] = tested on: CCRF-CEM; assay: Tested for their growth inhibition of CCRF-CEM human leukemia subline resistant as a result of decrease polyglutamylation.; type: functional, cell-based
[5] = molecular target: T2, Bifunctional dihydrofolate reductase-thymidylate synthase (Toxoplasma gondii, UniProt Q07422)
T2 sequence (Q07422 whole entry): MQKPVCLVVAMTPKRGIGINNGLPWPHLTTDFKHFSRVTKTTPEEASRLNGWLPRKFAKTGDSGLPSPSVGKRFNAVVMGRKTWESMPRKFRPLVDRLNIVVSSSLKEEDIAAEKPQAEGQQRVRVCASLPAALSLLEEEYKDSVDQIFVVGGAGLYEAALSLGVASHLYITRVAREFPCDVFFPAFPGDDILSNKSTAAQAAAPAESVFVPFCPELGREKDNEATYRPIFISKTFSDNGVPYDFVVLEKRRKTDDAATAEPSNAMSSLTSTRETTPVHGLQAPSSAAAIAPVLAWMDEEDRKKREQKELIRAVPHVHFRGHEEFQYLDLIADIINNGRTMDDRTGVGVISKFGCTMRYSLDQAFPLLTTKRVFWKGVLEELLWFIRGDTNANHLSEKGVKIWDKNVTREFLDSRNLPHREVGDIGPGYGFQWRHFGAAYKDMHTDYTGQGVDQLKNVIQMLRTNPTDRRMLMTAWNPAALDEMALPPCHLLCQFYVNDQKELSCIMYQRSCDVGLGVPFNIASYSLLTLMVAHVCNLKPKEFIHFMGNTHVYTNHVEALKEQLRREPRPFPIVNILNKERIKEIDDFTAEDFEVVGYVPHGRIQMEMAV
Description: Inhibitory concentration against isolated Toxoplasma gondii DHFR (dihydrofolate reductase)

[6] = species on record: Homo sapiens; assay: Ratio between Vmax and Km for compound as substrate for recombinant human folyl-poly-glutamate synthase (FPGS); type: ADME; conditions: in vivo
[7] = species on record: Homo sapiens; assay: The maximum velocity at which substrate concentration is stabilised is determined for compound as substrate for recombinant human folyl-poly-glutamate synthase (FPGS); type: ADME; conditions: in vivo
[8] = molecular target: Thymidylate synthase (Rattus norvegicus, UniProt P45352); assay: Inhibitory concentration against isolated rat thymidylate synthase
[9] = molecular target: T3, Dihydrofolate reductase (Pneumocystis carinii, UniProt P16184)
T3 sequence (P16184 whole entry): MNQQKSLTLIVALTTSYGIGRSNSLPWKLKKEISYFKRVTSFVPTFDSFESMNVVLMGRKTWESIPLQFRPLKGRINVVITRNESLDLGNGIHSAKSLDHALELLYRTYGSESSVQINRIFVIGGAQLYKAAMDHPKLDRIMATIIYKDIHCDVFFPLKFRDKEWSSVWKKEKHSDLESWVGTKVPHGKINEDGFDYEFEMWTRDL
Description: Inhibitory concentration against isolated Pneumocystis carinii DHFR (Dihydrofolate reductase)

[10] = molecular target: T4, Thymidylate synthase (Lactobacillus casei, UniProt P00469); assay: Inhibitory concentration against isolated Lactobacillus casei Thymidylate synthase; design: species or system Lacticaseibacillus casei
T4 sequence (P00469 whole entry): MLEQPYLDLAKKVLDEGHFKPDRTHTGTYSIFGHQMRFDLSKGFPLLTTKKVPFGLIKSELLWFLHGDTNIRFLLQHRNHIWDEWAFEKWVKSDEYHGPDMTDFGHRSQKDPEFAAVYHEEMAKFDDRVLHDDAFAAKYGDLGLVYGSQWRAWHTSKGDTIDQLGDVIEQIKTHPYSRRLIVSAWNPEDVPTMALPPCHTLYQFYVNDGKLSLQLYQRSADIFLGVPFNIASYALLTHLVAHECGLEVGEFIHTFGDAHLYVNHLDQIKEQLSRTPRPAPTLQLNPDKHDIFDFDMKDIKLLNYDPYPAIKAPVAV

[11] = molecular target: T5, Thymidylate synthase (Homo sapiens, UniProt P04818); assay: Inhibitory concentration against isolated Thymidylate synthase
[12] = tested on: CCRF-CEM; assay: Concentration required to inhibit growth against CCRF-CEM cell; type: functional, cell-based; conditions: Homo sapiens
[13] = molecular target: Dihydrofolate reductase (Escherichia coli, UniProt P0ABQ4)
Description: Inhibitory concentration against isolated Escherichia coli Dihydrofolate reductase

[14] = tested on: carcinoma cell line; assay: Tested for their inhibition of growth of CCRF-CEM human leukemia on carcinoma cell lines.; type: functional, cell-based
[15] = tested on: carcinoma cell line; assay: Tested for their inhibition of growth of FaDu head on carcinoma cell lines.; type: functional, cell-based; conditions: Homo sapiens
[16] = tested on: CCRF-CEM; assay: Growth inhibition of human T-lymphoblastic leukemia cell line CCRF-CEM in culture; type: functional; conditions: read-out: ED50 (the source's name)
[17] = molecular target: T5, Thymidylate synthase; assay: Inhibitory concentration against human TS
[18] = molecular target: Trifunctional purine biosynthetic protein adenosine-3 (Homo sapiens, UniProt P22102); assay: Inhibition against GAR transformylase; In active
[19] = molecular target: T6, Bifunctional purine biosynthesis protein ATIC (Homo sapiens, UniProt P31939); assay: Inhibition against […]-4-carboxamide ribonucleotide formyltransferase (AICAR formyltransferase); In active
[20] = tested on: FaDu; assay: Growth inhibition of human squamous cell carcinoma FaDu in culture; type: functional; conditions: read-out: ED50 (the source's name)
[21] = molecular target: T5, Thymidylate synthase; assay: Inhibitory concentration against human Thymidylate synthase(TS)
[22] = molecular target: T6, Bifunctional purine biosynthesis protein ATIC; assay: Inhibition against […]-4-carboxamide ribonucleotide formyltransferase (AICAR formyltransferase); inactive
[23] = tested on: SF-539; assay: Cytotoxicity was tested against CNS cancer SF-539 tumor cell lines.; type: functional; conditions: Homo sapiens
[24] = tested on: NCI-H460; assay: Cytotoxicity against non small cell lung cancer NCI-H460 tumor cell lines.; type: functional; conditions: Homo sapiens
[25] = tested on: CCRF-CEM; assay: Tested for their growth inhibition of CCRF-CEM human leukemia subline resistant as a result of increase in wild type DHFR protein and activity.; type: functional, cell-based
[26] = tested on: HCT-116; assay: Cytotoxicity was tested against colon cancer HCT116 tumor cell lines.; type: functional; conditions: Homo sapiens
[27] = tested on: ACHN; assay: Cytotoxicity was tested against renal cancer ACHN tumor cell lines.; type: functional; conditions: Homo sapiens
[28] = tested on: MCF7; assay: Cytotoxicity was tested against breast cancer MCF-7 tumor cell lines.; type: functional; conditions: Homo sapiens
[29] = tested on: HCC 2998; assay: Cytotoxicity against colon cancer HCC2998 tumor cell lines.; type: functional; conditions: Homo sapiens
[30] = tested on: MOLT-4; assay: Cytotoxicity against leukemia MOLT-4 tumor cell lines.; type: functional; conditions: Homo sapiens
[31] = tested on: CCRF-CEM; assay: Tested for their growth inhibition of CCRF-CEM human leukemia subline resistant as a result of decrease in uptake.; type: functional, cell-based
[32] = tested on: NCI-H226; assay: Cytotoxicity against non small cell lung cancer NCI-H226 tumor cell lines.; type: functional; conditions: Homo sapiens
[33] = substrate: Cc1nc(N)nc2c1c(CCc1ccc(C(=O)N[C@@H](CCC(=O)O)C(=O)O)cc1)cn2Cc1ccccc1; assay: (§1) Activity as substrate for recombinant human folyl-poly-glutamate synthase (FPGS).
[34] = substrate: Cc1nc(N)nc2[nH]cc(CCc3ccc(C(=O)N[C@@H](CCC(=O)O)C(=O)O)cc3)c12; assay: as §1

Sequence of Dihydrofolate reductase (Lactobacillus casei, UniProt P00381) (P00381 whole entry): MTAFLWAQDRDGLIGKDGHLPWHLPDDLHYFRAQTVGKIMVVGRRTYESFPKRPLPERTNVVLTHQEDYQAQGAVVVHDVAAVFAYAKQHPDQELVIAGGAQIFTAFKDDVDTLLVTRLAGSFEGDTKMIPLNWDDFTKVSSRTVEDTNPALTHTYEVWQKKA
Sequence of Thymidylate synthase (Rattus norvegicus, UniProt P45352) (P45352 whole entry): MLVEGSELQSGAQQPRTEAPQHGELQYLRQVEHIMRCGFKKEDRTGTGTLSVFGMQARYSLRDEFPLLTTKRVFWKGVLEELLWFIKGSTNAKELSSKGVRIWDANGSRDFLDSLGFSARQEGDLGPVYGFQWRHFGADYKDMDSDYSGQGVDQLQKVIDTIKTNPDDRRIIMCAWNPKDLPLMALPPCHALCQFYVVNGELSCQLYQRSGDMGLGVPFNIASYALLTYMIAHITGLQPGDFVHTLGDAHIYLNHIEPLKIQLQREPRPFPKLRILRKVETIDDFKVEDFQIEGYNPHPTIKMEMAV
T5 sequence (P04818 whole entry): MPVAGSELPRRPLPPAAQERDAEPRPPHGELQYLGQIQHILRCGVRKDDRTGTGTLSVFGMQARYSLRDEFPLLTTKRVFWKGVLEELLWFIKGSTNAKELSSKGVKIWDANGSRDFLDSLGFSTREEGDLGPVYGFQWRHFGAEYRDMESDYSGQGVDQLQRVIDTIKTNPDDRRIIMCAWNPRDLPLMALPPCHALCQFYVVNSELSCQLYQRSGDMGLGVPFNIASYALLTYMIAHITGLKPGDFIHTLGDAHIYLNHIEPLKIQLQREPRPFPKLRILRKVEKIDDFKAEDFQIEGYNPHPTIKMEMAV
T6 sequence (P31939 whole entry): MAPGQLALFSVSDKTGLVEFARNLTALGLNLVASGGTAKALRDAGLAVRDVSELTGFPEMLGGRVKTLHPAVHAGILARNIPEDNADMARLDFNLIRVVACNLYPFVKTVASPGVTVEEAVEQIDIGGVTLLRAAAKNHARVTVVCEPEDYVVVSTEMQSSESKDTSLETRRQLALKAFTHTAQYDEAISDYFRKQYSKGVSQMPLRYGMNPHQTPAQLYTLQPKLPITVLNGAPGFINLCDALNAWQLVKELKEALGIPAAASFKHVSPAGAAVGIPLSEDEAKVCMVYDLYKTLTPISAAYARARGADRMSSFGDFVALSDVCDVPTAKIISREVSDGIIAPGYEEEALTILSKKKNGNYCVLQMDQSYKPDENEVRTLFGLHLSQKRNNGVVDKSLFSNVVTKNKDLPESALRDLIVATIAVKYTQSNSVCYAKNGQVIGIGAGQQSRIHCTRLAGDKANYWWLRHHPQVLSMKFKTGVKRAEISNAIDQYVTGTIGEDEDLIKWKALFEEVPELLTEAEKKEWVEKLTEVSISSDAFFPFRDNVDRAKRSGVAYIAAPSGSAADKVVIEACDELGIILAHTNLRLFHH
Sequence of Dihydrofolate reductase (Escherichia coli, UniProt P0ABQ4) (P0ABQ4 whole entry): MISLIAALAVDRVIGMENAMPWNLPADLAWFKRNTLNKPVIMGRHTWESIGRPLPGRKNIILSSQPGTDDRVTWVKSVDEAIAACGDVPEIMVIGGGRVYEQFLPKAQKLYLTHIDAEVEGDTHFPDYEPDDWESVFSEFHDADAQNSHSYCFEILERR
Sequence of Thymidylate synthase (Escherichia coli, UniProt C3SWJ7) (C3SWJ7 whole entry): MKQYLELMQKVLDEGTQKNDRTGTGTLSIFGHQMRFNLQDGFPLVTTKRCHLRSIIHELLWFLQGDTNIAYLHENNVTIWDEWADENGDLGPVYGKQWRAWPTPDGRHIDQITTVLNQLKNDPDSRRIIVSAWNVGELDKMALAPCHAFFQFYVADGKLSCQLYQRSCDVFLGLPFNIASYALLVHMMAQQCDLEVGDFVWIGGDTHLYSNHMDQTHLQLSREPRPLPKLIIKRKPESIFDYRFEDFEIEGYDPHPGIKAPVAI
Sequence of Trifunctional purine biosynthetic protein adenosine-3 (P22102 whole entry): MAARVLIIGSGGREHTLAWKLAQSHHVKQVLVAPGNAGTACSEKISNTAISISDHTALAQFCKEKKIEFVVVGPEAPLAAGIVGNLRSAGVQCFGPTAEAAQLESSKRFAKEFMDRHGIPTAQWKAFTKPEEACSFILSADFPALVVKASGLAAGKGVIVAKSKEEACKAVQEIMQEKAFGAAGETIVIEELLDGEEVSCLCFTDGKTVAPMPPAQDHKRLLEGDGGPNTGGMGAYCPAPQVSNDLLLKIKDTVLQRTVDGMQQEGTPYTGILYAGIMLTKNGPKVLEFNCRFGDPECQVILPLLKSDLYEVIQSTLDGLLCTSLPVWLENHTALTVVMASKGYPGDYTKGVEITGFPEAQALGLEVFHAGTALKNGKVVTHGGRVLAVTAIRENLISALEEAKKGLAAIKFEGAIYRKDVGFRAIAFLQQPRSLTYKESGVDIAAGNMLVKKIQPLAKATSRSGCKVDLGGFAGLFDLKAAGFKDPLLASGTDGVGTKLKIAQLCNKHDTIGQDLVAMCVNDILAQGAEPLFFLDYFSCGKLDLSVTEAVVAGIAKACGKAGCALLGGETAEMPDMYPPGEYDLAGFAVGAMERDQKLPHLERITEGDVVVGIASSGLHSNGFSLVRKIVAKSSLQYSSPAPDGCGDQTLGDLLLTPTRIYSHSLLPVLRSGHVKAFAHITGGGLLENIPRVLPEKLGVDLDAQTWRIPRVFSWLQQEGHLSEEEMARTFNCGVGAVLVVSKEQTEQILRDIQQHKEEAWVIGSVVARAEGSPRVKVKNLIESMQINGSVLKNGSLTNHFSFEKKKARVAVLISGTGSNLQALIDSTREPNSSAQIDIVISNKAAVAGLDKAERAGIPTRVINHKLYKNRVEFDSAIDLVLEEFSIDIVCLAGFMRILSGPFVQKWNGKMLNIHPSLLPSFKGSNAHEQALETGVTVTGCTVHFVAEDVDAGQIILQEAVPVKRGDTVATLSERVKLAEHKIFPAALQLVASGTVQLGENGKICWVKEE

Molecule: Cc1nc(N)nc2c1c(CCc1ccc(C(=O)N[C@@H](CCC(=O)O)C(=O)O)cc1)cn2Cc1ccccc1
- IC50 [1]: 19000 nM
- IC50 [2]: > 19000 nM
- IC50 [3]: 16000 nM
- IC50 [4]: > 20000 nM
- IC50 [5]: > 19000 nM
- Ratio [6]: 0.02
- Vmax [7]: 0.65
- IC50 [8]: > 16000 nM
- IC50 [9]: > 19000 nM
- IC50 [10]: 310 nM
- IC50 [11]: > 16000 nM
- IC50 [12]: > 10000 nM
- IC50 [13]: > 19000 nM
- IC50 [14]: > 10000 nM
- IC50 [15]: > 20000 nM

Molecule: Nc1nc(N)c2c(CCc3ccc(C(=O)N[C@@H](CCC(=O)O)C(=O)O)cc3)coc2n1
- EC50 [16]: 250 nM

Molecule: Cc1nc2ccc(CN(C)c3ccc(C(=O)N[C@@H](CCC(=O)O)C(=O)O)s3)cc2c(=O)[nH]1 [RALTITREXED]
- IC50 [8]: 900 nM
- IC50 [10]: 8000 nM

Molecule: Cc1cn([C@@H]2O[C@H](COP(=O)(O)O)[C@@H](O)[C@H]2O)c(=O)[nH]c1=O
- IC50 [1]: 350 nM
- IC50 [2]: 340000 nM
- IC50 [5]: 3400 nM
- IC50 [9]: 15000 nM
- IC50 [13]: 20 nM

Molecule: Nc1nc(N)c2c(CNCc3ccc(C(=O)N[C@@H](CCC(=O)O)C(=O)O)cc3)coc2n1
- EC50 [16]: 30500 nM

Molecule: Nc1nc(N)c2c(CNc3ccc(C(=O)N[C@@H](CCC(=O)O)C(=O)O)cc3)coc2n1
- IC50 [17]: > 200000 nM
- IC50 [18]: Not Active
- IC50 [19]: Not Active

Molecule: Nc1nc(N)c2nc(CNc3ccc(C(=O)N[C@@H](CCC(=O)O)C(=O)O)cc3)cnc2n1 [AMINOPTERIN]
- Ratio [6]: 0.21
- Vmax [7]: 1

Molecule: Nc1nc2[nH]cc(CCc3ccc(C(=O)N[C@@H](CCC(=O)O)C(=O)O)cc3)c2c(=O)[nH]1 [PEMETREXED]
- IC50 [8]: 20000 nM
- IC50 [10]: 20000 nM
- IC50 [11]: 110000 nM

Molecule: CN(Cc1coc2nc(N)nc(N)c12)c1ccc(C(=O)N[C@@H](CCC(=O)O)C(=O)O)cc1 [FURO[2,3D]PYRIMIDINE ANTIFOLATE]
- EC50 [20]: 55 nM
- EC50 [16]: 47 nM
- IC50 [21]: > 200000 nM
- IC50 [22]: Not Active
- IC50 [18]: Not Active

Molecule: Cc1nc(N)nc2[nH]cc(CCc3ccc(C(=O)N[C@@H](CCC(=O)O)C(=O)O)cc3)c12
- GI50 [23]: < 10 nM
- IC50 [1]: 24 nM
- GI50 [24]: < 10 nM
- EC50 [25]: 158 nM
- IC50 [2]: 800 nM
- GI50 [26]: 7110 nM
- IC50 [3]: 2000 nM
- EC50 [4]: 18.5 nM
- GI50 [27]: < 10 nM
- IC50 [5]: 1200 nM
- Vmax [7]: 0.17
- GI50 [28]: 169 nM
- IC50 [8]: 2000 nM
- IC50 [9]: 1200 nM
- IC50 [10]: 9000 nM
- GI50 [29]: < 10 nM
- GI50 [30]: < 10 nM
- IC50 [11]: 1000 nM
- EC50 [12]: 12.5 nM
- EC50 [31]: 575 nM
- GI50 [32]: 61.4 nM
- EC50 [14]: 12.5 nM
- EC50 [15]: 7 nM

B1: Folylpolyglutamate synthase, mitochondrial (Homo sapiens), Q05932 (protein)
chain: MSRARSHLRAALFLAAASARGITTQVAARRGLSAWPVPQEPSMEYQDAVRMLNTLQTNAGYLEQVKRQRGDPQTQLEAMELYLARSGLQVEDLDRLNIIHVTGTKGKGSTCAFTECILRSYGLKTGFFSSPHLVQVRERIRINGQPISPELFTKYFWRLYHRLEETKDGSCVSMPPYFRFLTLMAFHVFLQEKVDLAVVEVGIGGAYDCTNIIRKPVVCGVSSLGIDHTSLLGDTVEKIAWQKGGIFKQGVPAFTVLQPEGPLAVLRDRAQQISCPLYLCPMLEALEEGGPPLTLGLEGEHQRSNAALALQLAHCWLQRQDRHGAGEPKASRPGLLWQLPLAPVFQPTSHMRLGLRNTEWPGRTQVLRRGPLTWYLDGAHTASSAQACVRWFRQALQGRERPSGGPEVRVLLFNATGDRDPAALLKLLQPCQFDYAVFCPNLTEVSSTGNADQQNFTVTLDQVLLRCLEHQQHWNHLDEEQASPDLWSAPSPEPGGSASLLLAPHPPHTCSASSLVFSCISHALQWISQGRDPIFQPPSPPKGLLTHPVAHSGASILREAAAIHVLVTGSLHLVGGVLKLLEPALSQ
- Km [33]: 37 µM
- Km [34]: < 1 µM
